Results on 15 compounds are retold here after patent US9463188B2, “Osteopontin production inhibitor containing dictyopyrone derivative or dihydrodictyopyrone derivative as active ingredient” (TOHOKU UNIVERSITY, priority 2013, dated 2016).

One experiment has as its system A549/OPNluc cells. As to the kind of experiment: WST assay (cell growth inhibition). It is filed as cell-based. The note with it: Homo sapiens, 48±4 hours, WST-1, read-out: IC50 (concentration for 50% inhibition of cell growth). From the text:
(§1) A reporter vector pOPN1-luc obtained by inserting a human OPN promoter sequence (−765 to 23) into the multiple cloning site of pGL-3 basic vector (Promega) expresses luciferase when transfected into animal cells. This pOPN1-luc was transfected into a human non-small cell lung cancer-derived cell line A549 together with pPUR (Clontech) that expresses a puromycin resistance gene (puromycin-N-acetyl-transferase gene), and cells that could grow in a puromycin-supplemented medium and expressed luciferase were selected. The selected cells were named A549/OPNluc cells and used for observation of luciferase expression inhibitory effect under control of OPN promoter, as described later.
(§2) A test compound was added to a culture liquid containing A549/OPNluc cells to observe its influence on the amount of luciferase expressed in the cells. Here, it can be considered that when the test compound has cytotoxity or cell growth-suppressing effect, the total expression level of luciferase is reduced due to a reduction in the number of living cells that depends on the concentration of the test compound, and therefore the luciferase expression inhibitory effect of the test compound under control of OPN promoter cannot be properly evaluated. For this reason, WST assay for quantification of cell proliferation ability or cell viability by colorimetric measurement was first performed to determine IC50 (concentration for 50% inhibition of cell growth) of the test compound for cell growth. Then, luciferase activity measurement was performed to determine EC50 (concentration for 50% inhibition of luciferase expression) of the test compound for luciferase expression under control of OPN promoter.
A549/OPNluc cells were suspended in DMEM medium containing 10% fetal calf serum (FCS) and 1% penicillin/streptomycin (P/S) at 3×10^4 cells/mL to obtain a cell suspension, and 100 μL of the cell suspension was dispensed into each well of a 96-well plate. In order to perform the assay in triplicate, 3 wells were prepared for a control group and 3 wells were prepared for each test compound-treated group at each concentration. After the dispensing, the 96-well plate was incubated in a CO2 incubator (at 37° C. and 5% CO2) for 24±4 hours.
The test compound was dissolved in dimethylsulfoxide (DMSO) to obtain a 50 mmol/L solution, and the test compound solution was stored at −80° C. The test compound solution was diluted with DMSO in 2-fold dilution series (usually, in the range of 0.31 mmol/L to 20 mmol/L) to prepare test compound solutions whose concentration varied by two fold for WST assay.
Only DMSO (control) or the diluted test compound (sample) solution was dispensed in an amount of 0.5 μL into each well containing the cell suspension (200-fold dilution). The solution in each well was mixed with a vortex mixer, and then the 96-well plate was incubated in a CO2 incubator (at 37° C. and 5% CO2) for 48±4 hours. Then, 10 μL of Premix WST-1 Reagent (TAKARA BIO INC.) was added to each well. The solution in each well was mixed with a vortex mixer, and then the 96-well plate was incubated at 37° C. and 5% CO2. After 60 minutes or 120 minutes, absorbance values (450 nm) were measured using a microplate reader (Bio-Rad; Benchmark or Thermo Scientific; Varioskan Flash).
The absorbance values of the control wells and the absorbance values of the sample wells at each concentration were input into an Excel file to determine the percentages of absorbance values of the sample wells at each concentration with respect to the average of absorbance values of the control wells. From the determined values, a fitted curve was determined by the method of least squares to calculate IC50.
(In general: Formazan colour is commonly taken as a measure of viable cells.)

Experiment [1] relates to human OPN promoter (pOPN1-luc) in A549/OPNluc cells. Description: Luciferase assay: luciferase expression under control of OPN promoter. The settings on record: for EC50: Homo sapiens, 48±4 hours, read-out: EC50 (concentration for 50% inhibition of luciferase expression under control of OPN promoter); for EC50 value relative to respective IC50 value: EC50 luciferase assay vs IC50 WST assay. It counts as cell-based.
Source text: as §1, §2
The same steps as in the above-described WST assay were performed in which only DMSO (control) or the diluted test compound (sample) solution was added in an amount of 0.5 μL to each well containing the cell suspension to achieve 200-fold dilution, and the solution in each well was mixed with a vortex mixer, and the 96-well plate was incubated in a CO2 incubator (at 37° C. and 5% CO2) for 48±4 hours.
A luciferase reagent was prepared by dissolving Luciferase Assay Substrate (hereinafter, referred to as “LAS”) supplied in Luciferase Assay Systems (Promega: Cat# E1500) with Luciferase Assay Buffer (LAB). 5× Cell Culture Lysis Reagent (hereinafter, referred to as “CCLR”) was diluted with water 5-fold to prepare 1×CCLR.
After the incubation for 48±4 hours, the medium in each well was completely removed, and 50 μL of 1×CCLR was dispensed into each well. The 96-well plate was allowed to stand at room temperature for 30 minutes, and then 1×CCLR in each well was used as an assay sample. The luciferase reagent of 100 μL was placed in a tube for chemiluminescence measurement, and 20 μL of the assay sample was added to the tube and mixed with the luciferase reagent to measure chemiluminescence (Relative Luminescence Intensity: RLU) using Tuner Design Luminometer 20/20 (Promega).
The RLU values of the control wells and the RLU values of the sample wells at each concentration were input into an Excel file, and the percentages of RLU values of the sample wells at each concentration with respect to the average of RLU values of the control wells were determined. From these values, a fitted curve was determined by the method of least squares to calculate EC50.

Regarding `CCCCCCCCCCCC(=O)[C@@H]1C(=O)O[C@@H](C)C[C@H]1C` [Chemical formula 12], the IC50 in the experiment on A549/OPNluc cells was over 50 µM. The EC50 in experiment [1] was over 50 µM.

With `CCCCCCCCCCCC(=O)C1=C(C)CC(C)(C)OC1=O` [Chemical formula 1], the IC50 with A549/OPNluc cells came to 129 µM. Moreover, in experiment [1], the “EC50 value relative to respective IC50 value” was “½” and the EC50 amounted to 24.4 µM.

Turning to `CCCCCCCCCCCC(=O)[C@H]1C(=O)OC(C)(C)C[C@@H]1C` [Chemical formula 14], the IC50 in the experiment on A549/OPNluc cells was determined as 54.1 µM. The EC50 in experiment [1] was 29.5 µM.

Consider `CCCCCCCCCCCC(=O)[C@@H]1C(=O)N[C@@H](C)C[C@H]1C` [Chemical formula 4], for which, in the experiment on A549/OPNluc cells, the IC50 was 42.5 µM. For the same compound, in experiment [1], the “EC50 value relative to respective IC50 value” was “½” and the EC50 is 19.7 µM.

In the case of `CCCCCCCCCCCC(O)[C@H]1C(=O)O[C@@H](C)C[C@@H]1C` (stereo partly drawn) [Chemical formula 15], in the experiment with A549/OPNluc cells, the IC50 was 88 µM. For the same compound, in experiment [1], the “EC50 value relative to respective IC50 value” is given as “½” and the EC50 is 43.4 µM.

For the compound `CCCCCCCCCCCC(=O)[C@H]1C(=O)O[C@H](C)C[C@@H]1C` [Chemical formula 13], in the experiment on A549/OPNluc cells, the IC50 was over 50 µM. For the same compound, the EC50 in experiment [1] is over 50 µM.

Regarding `CCCCCCCCCCC/C(OC(C)=O)=C1\C(=O)O[C@@H](C)C[C@@H]1C` [Chemical formula 16], the IC50 with A549/OPNluc cells is over 100 µM. In experiment [1], the “EC50 value relative to respective IC50 value” is reported as “½” and the EC50 came to 31.1 µM.

Take `CCCCCCCCCCCC(=O)C1=C(C)C[C@H](C)OC1=O` [Chemical formula 5]: the IC50 in the experiment on A549/OPNluc cells was 129 µM. Besides, in experiment [1], the EC50 was determined as 63 µM.

On to `CCCC(=O)C1=C(C)C[C@H](C)NC1=O` [Chemical formula 10, (S)-3-butanoyl-5,6-dihydro-4,6-dimethyl-1H-pyridin-2-one], for which, in the experiment on A549/OPNluc cells, the IC50 was determined as 110 µM. Further, the EC50 in experiment [1] is 63 µM.

For `CCCC(=O)C1=C(C)C[C@H](C)OC1=O` [Chemical formula 6], the IC50 in the experiment on A549/OPNluc cells is over 100 µM. In addition, the EC50 in experiment [1] is over 100 µM.

In the case of `CCCCCCCC(=O)C1=C(C)C[C@H](C)OC1=O` [Chemical formula 7], in the experiment on A549/OPNluc cells, the IC50 was over 100 µM. The EC50 in experiment [1] is over 100 µM.

Turning to `CCCCCCCCCCCC(=O)C1=C(C)C[C@@H](C)OC1=O` [Chemical formula 8], in the experiment with A549/OPNluc cells, the IC50 stood at 111 µM. In experiment [1], the “EC50 value relative to respective IC50 value” was “½” and the EC50 was found to be 55 µM.

As to `CCCCCCCC(=O)C1=C(C)C[C@H](C)NC1=O` [Chemical formula 11, (S)-5,6-dihydro-4,6-dimethyl-3-octanoyl-1H-pyridin-2-one], the IC50 in the experiment on A549/OPNluc cells was over 100 µM. Also, the EC50 in experiment [1] is over 100 µM.

Take `CCCCCCCCCCCC(=O)C1=C(C)C[C@H](C)NC1=O` [Chemical formula 2]: in the experiment with A549/OPNluc cells, the IC50 worked out at 59.1 µM. For the same compound, in experiment [1], the “EC50 value relative to respective IC50 value” was “½” and the EC50 came out at 29.5 µM.

As for `COC(=O)CCCCCCC(=O)C1=C(C)C[C@H](C)OC1=O` [Chemical formula 9, methyl (S)-8-(4,6-dimethyl-2-oxo-5,6-dihydro-2H-pyran-3-yl)-8-Oxooctanoate], in the experiment with A549/OPNluc cells, the IC50 is over 100 µM. Besides, the EC50 in experiment [1] is over 100 µM.
